For orientation: IC50 means the midpoint of a concentration-inhibition curve.

The experiment deals with T1, GST-RIPK1 (recombinant GST-RIPK1 kinase domain (residues 1-327)) (Homo sapiens, UniProt Q13546).
T1 construct: recombinant GST-RIPK1 kinase domain (residues 1-327) enzyme; made in house; host or cells: baculovirus-transfected Sf21 insect cells
T1 sequence (Q13546 1-327): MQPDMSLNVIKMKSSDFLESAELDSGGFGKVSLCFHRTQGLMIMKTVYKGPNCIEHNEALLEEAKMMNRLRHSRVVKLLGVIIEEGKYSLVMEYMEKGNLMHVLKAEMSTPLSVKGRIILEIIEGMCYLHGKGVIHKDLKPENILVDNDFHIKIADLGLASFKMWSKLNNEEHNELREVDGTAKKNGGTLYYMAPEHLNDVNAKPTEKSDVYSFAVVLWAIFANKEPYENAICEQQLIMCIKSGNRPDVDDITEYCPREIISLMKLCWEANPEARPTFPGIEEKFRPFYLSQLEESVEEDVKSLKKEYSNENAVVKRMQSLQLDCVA
As to the kind of experiment: RIPK1-ADP-Glo enzymatic assay. Type of experiment: biochemical. To be noted: 25 nM GST-RIPK1, 300 μM ATP, 3 μM dephosphorylated-MBP; 30 minutes pre-incubation, 150 minutes reaction; ten-point titration. How it is done: The enzymatic activity of RIPK1 is measured using an assay derived from ADP-Glo kit (Promega™), which provides a luminescent-based ADP detection system. Specifically, the ADP generated by RIPK1 kinase is proportionally detected as luminescent signals in a homogenous fashion. In this context, the assessment of the inhibitory effect of small molecules (EC50) is measured by the effectiveness of the compounds to inhibit the ATP to ADP conversion by RIPK1. In this assay, the potency (EC50) of each compound was determined from a ten-point (1:3 serial dilution; top compound concentration of 100000 nM) titration curve using the following outlined procedure. To each well of a white ProxiPlus 384 well-plate, […] of compound (1% DMSO in final assay volume of 3 μL) was dispensed, followed by the addition of 2 μL of 1× assay buffer (25 mM Hepes 7.3, 20 mM MgCl2, 50 mM NaCl, 1 mM DTT, 0.005% Tween20, and 0.02% BSA) containing 37.5 nM of GST-RIPK1 (recombinant GST-RIPK1 kinase domain (residues 1-327) enzyme produced from baculovirus-transfected Sf21 cells: MW=62 kDa). Plates were placed in an ambient temperature humidified chamber for a 30 minutes pre-incubation with compound. Subsequently, each reaction was initiated by the addition of 1 μL 1×assay buffer containing 900 μM ATP and […]. The final reaction in each well of 3 μL consists of 25 nM of GST-RIPK1, 300 μM ATP, and 3 μM dephosphorylated-MBP. Kinase reactions were allowed to proceed for 150 minutes prior to adding ADP-Glo reagents per Promega's outlined kit protocol. Dose-response curves were generated by plotting percent effect (% product conversion; Y-axis) vs. Log10 compound concentrations (X-axis). EC50 values were calculated using a non-linear regression, four-parameters sigmoidal dose-response model.
(In general: In ADP-Glo the light output rises with the ADP produced.)
For `COC(C)(C(=O)N1C[C@@H]2C[C@H]1c1cncc(C#N)c1O2)C1CC1` (mixture of isomers) [Compound 1-62, (2S,5S)-4-(2-(S and R)-cyclopropyl-2-methoxypropanoyl)-2,3,4,5-tetrahydro-2,5-methanopyrido[3,4-f][1,4]oxazepine-9-carbonitrile], the half-inhibitory concentration (IC50) is 444 nM.
For `CC1(C(=O)N2C[C@@H]3C[C@H]2c2cncc(C#N)c2O3)CCCO1` (mixture of isomers) [Compound 1-64, (2S,5S)-4-(2-(S and R)-methyltetrahydrofuran-2-carbonyl)-2,3,4,5-tetrahydro-2,5-methanopyrido[3,4-f][1,4]oxazepine-9-carbonitrile] the value was 729 nM; for `CC1(C(=O)N2C[C@@H]3C[C@H]2c2cncc(C#N)c2O3)CCOC1` (mixture of isomers) [Compound 1-67, (2S,5S)-4-(3-(S and R)-methyltetrahydrofuran-3-carbonyl)-2,3,4,5-tetrahydro-2,5-methanopyrido[3,4-f][1,4]oxazepine-9-carbonitrile], 640 nM.
On to `CCC(C)(OC)C(=O)N1C[C@@H]2C[C@H]1c1cncc(C#N)c1O2` (single isomer, unassigned) [Compound 1-16, (2S,5S)-4-[2(S or R)-methoxy-2-methylbutanoyl]-2,3,4,5-tetrahydro-2,5-methanopyrido[3,4-f][1,4]oxazepine-9-carbonitrile], for which the IC50 came to 10 nM.
On to `CCC(C)(OC)C(=O)N1C[C@@H]2C[C@H]1c1cncc(C#N)c1O2` (single isomer, unassigned) [Compound 1-17, (2S,5S)-4-[2(S or R)-methoxy-2-methylbutanoyl]-2,3,4,5-tetrahydro-2,5-methanopyrido[3,4-f][1,4]oxazepine-9-carbonitrile], for which the IC50 was 24 nM.
For `CC1(C(=O)N2C[C@@H]3C[C@H]2c2cncc(C#N)c2O3)CC1(F)F` (single isomer, unassigned) [Compound 1-28, (2S,5S)-4-[(S or R)-2,2-difluoro-1-methylcyclopropane-1-carbonyl]-2,3,4,5-tetrahydro-2,5-methanopyrido[3,4-f][1,4]oxazepine-9-carbonitrile], the IC50 turned out to be 201 nM.
In the case of `CC1(C(=O)N2C[C@@H]3C[C@H]2c2cncc(C#N)c2O3)CC1(F)F` (single isomer, unassigned) [Compound 1-29, (2S,5S)-4-[(S or R)-2,2-difluoro-1-methylcyclopropane-1-carbonyl]-2,3,4,5-tetrahydro-2,5-methanopyrido[3,4-f][1,4]oxazepine-9-carbonitrile], the IC50 stood at 376 nM.
For `N#Cc1cncc2c1O[C@H]1C[C@@H]2N(C(=O)C23CCCC2C3)C1` (single isomer, unassigned) [Compound 1-32, (2S,5S)-4-[(1R,5R or 1S,5S)-bicyclo[3.1.0]hexane-1-carbonyl]-2,3,4,5-tetrahydro-2,5-methanopyrido[3,4-f][1,4]oxazepine-9-carbonitrile], the IC50 is 290 nM.
For `N#Cc1cncc2c1O[C@H]1C[C@@H]2N(C(=O)C23CCCC2C3)C1` (single isomer, unassigned) [Compound 1-33, (2S,5S)-4-[(1R,5R or 1S,5S)-bicyclo[3.1.0]hexane-1-carbonyl]-2,3,4,5-tetrahydro-2,5-methanopyrido[3,4-f][1,4]oxazepine-9-carbonitrile], the IC50 is 94 nM.
`CC1(C(=O)N2C[C@@H]3C[C@H]2c2cncc(C#N)c2O3)Cc2cccc(Cl)c21` (single isomer, unassigned) [Compound 1-37, (2S,5S)-4-(5-chloro-7(R or S)-methylbicyclo[4.2.0]octa-1,3,5-triene-7-carbonyl)-2,3,4,5-tetrahydro-2,5-methanopyrido[3,4-f][1,4]oxazepine-9-carbonitrile]: the IC50 is 136 nM.
Take `CC1(C(=O)N2C[C@@H]3C[C@H]2c2cncc(C#N)c2O3)CCCC1(F)F` (single isomer, unassigned) [Compound 1-38]: the IC50 was found to be 21 nM.
As to `CC1(C(=O)N2C[C@@H]3C[C@H]2c2cncc(C#N)c2O3)CCCC1(F)F` (single isomer, unassigned) [Compound 1-39], the IC50 amounted to 31 nM.
In the case of `CC1(C(=O)N2C[C@@H]3C[C@H]2c2cncc(C#N)c2O3)CCCC(F)(F)C1` (single isomer, unassigned) [Compound 1-40, (2S,5S)-4-[3,3-difluoro-1(R or S)-methylcyclohexane-1-carbonyl]-2,3,4,5-tetrahydro-2,5-methanopyrido[3,4-f][1,4]oxazepine-9-carbonitrile], the IC50 is 62 nM.
For `CC1(C(=O)N2C[C@@H]3C[C@H]2c2cncc(C#N)c2O3)CCCC(F)(F)C1` (single isomer, unassigned) [Compound 1-41, (2S,5S)-4-[3,3-difluoro-1-(R or S)-methylcyclohexane-1-carbonyl]-2,3,4,5-tetrahydro-2,5-methanopyrido[3,4-f][1,4]oxazepine-9-carbonitrile], the IC50 is 27 nM.
Turning to `N#Cc1cncc2c1O[C@H]1C[C@@H]2N(C(=O)C23CCC(CC2(F)F)C3)C1` (single isomer, unassigned) [Compound 1-48, (2S,5S)-4-[(S or R)-2,2-difluorobicyclo[2.2.1]heptane-1-carbonyl]-2,3,4,5-tetrahydro-2,5-methanopyrido[3,4-f][1,4]oxazepine-9-carbonitrile], the IC50 came out at 5 nM.
Turning to `N#Cc1cncc2c1O[C@H]1C[C@@H]2N(C(=O)C23CCC(CC2(F)F)C3)C1` (single isomer, unassigned) [Compound 1-49, (2S,5S)-4-[(S or R)-2,2-difluorobicyclo[2.2.1]heptane-1-carbonyl]-2,3,4,5-tetrahydro-2,5-methanopyrido[3,4-f][1,4]oxazepine-9-carbonitrile], the half-inhibitory concentration (IC50) is 70 nM.
On to `N#Cc1cncc2c1O[C@H]1C[C@@H]2N(C(=O)C23CCC(C2)OC3)C1` (single isomer, unassigned) [Compound 1-50, (2S,5S)-4-[(S or R)-2-oxabicyclo[2.2.1]heptane-4-carbonyl]-2,3,4,5-tetrahydro-2,5-methanopyrido[3,4-f][1,4]oxazepine-9-carbonitrile], for which the IC50 was found to be 300 nM.
In the case of `N#Cc1cncc2c1O[C@H]1C[C@@H]2N(C(=O)C23CCC(C2)OC3)C1` (single isomer, unassigned) [Compound 1-51, (2S,5S)-4-[(S or R)-2-oxabicyclo[2.2.1]heptane-4-carbonyl]-2,3,4,5-tetrahydro-2,5-methanopyrido[3,4-f][1,4]oxazepine-9-carbonitrile], the IC50 came to 367 nM.
For `CCC(C)(C(=O)N1C[C@@H]2C[C@H]1c1cncc(C#N)c1O2)C(F)F` (single isomer, unassigned) [Compound 1-84, (2S,5S)-4-(2-(R or S)-(difluoromethyl)-2-methylbutanoyl)-2,3,4,5-tetrahydro-2,5-methanopyrido[3,4-f][1,4]oxazepine-9-carbonitrile] the value was 47 nM; for `CCC(C)(C(=O)N1C[C@@H]2C[C@H]1c1cncc(C#N)c1O2)C(F)F` (single isomer, unassigned) [Compound 1-85, (2S,5S)-4-(2-(R or S)-(difluoromethyl)-2-methylbutanoyl)-2,3,4,5-tetrahydro-2,5-methanopyrido[3,4-f][1,4]oxazepine-9-carbonitrile], 19 nM; for `N#Cc1cncc2c1O[C@H]1C[C@@H]2N(C(=O)C23CCCC2C3(F)F)C1` (single isomer, unassigned) [Compound 1-86, (2S,5S)-4-((1R,5S or 1S,5R)-6,6-difluorobicyclo[3.1.0]hexane-1-carbonyl)-2,3,4,5-tetrahydro-2,5-methanopyrido[3,4-f][1,4]oxazepine-9-carbonitrile], 33 nM.
With `N#Cc1cncc2c1O[C@H]1C[C@@H]2N(C(=O)C23CCCC2C3(F)F)C1` (single isomer, unassigned) [Compound 1-87, (2S,5S)-4-((1R,5S or 1S,5R)-6,6-difluorobicyclo[3.1.0]hexane-1-carbonyl)-2,3,4,5-tetrahydro-2,5-methanopyrido[3,4-f][1,4]oxazepine-9-carbonitrile] the figure was 68 nM.

These data come from patent US20240228506A1, “RIPK1 INHIBITORS AND METHODS OF USE” (Merck Sharp & Dohme LLC, priority 2021, published 2024).
